What all share (assay type): cell-based
Assay [1] concerns the target T1, human TLR7 (Homo sapiens, UniProt Q9NYK1).
T1 construct: host or cells: HEK293 (HEK-Blue hTLR7)
T1 sequence (Q9NYK1 27-1049): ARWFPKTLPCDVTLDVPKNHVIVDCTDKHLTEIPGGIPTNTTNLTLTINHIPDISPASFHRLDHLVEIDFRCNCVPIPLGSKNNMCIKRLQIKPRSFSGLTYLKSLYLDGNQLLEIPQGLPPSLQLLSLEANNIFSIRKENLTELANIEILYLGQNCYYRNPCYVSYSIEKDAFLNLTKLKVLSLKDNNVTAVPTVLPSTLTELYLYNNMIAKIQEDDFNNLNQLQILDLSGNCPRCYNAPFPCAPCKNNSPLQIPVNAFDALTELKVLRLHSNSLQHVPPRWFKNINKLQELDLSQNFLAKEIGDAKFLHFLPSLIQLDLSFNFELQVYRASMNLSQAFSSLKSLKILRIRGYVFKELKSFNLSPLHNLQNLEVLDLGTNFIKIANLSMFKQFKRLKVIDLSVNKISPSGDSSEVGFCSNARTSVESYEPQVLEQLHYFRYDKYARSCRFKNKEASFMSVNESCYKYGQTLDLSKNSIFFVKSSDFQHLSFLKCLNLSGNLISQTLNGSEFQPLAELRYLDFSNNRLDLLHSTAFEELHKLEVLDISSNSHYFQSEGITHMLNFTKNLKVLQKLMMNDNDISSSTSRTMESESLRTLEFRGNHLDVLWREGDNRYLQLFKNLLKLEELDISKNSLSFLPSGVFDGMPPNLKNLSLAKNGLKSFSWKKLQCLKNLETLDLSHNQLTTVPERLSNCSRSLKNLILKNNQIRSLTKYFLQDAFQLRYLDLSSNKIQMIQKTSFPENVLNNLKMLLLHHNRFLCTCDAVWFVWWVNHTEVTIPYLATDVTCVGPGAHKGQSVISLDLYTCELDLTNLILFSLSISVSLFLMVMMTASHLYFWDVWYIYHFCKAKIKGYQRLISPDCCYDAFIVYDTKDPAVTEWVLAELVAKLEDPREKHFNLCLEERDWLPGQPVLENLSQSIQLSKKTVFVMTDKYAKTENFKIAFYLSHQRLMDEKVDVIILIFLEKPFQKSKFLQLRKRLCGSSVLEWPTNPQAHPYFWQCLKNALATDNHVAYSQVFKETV
Put plainly: HEK293-Blue hTLR7 Reporter Assay (QUANTI-BLUE, SEAP readout). The note with it: HEK-Blue-hTLR7 cells, 24 hrs treatment, Table 1, B1-B232. The essentials:
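HEK-Blue-hTLR7 cells expressing NF-κB/AP-1-driven SEAP, 4×10^4 cells/well, treated 24 h at 37° C with increasing compound concentrations. Supernatant SEAP measured with Quanti-blue substrate (10-30 min, 37° C) at 620-655 nm; EC50 from sigmoidal dose-response fit.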
In general terms: In a reporter assay the amount or activity of a reporter protein is the signal.

Assay [2] deals with T2, human TLR 8 protein (Homo sapiens, UniProt Q9NR97).
T2 construct: expressed in transfected cells; host or cells: HEK293 (HEK-Blue hTLR8)
T2 sequence (Q9NR97 27-1041): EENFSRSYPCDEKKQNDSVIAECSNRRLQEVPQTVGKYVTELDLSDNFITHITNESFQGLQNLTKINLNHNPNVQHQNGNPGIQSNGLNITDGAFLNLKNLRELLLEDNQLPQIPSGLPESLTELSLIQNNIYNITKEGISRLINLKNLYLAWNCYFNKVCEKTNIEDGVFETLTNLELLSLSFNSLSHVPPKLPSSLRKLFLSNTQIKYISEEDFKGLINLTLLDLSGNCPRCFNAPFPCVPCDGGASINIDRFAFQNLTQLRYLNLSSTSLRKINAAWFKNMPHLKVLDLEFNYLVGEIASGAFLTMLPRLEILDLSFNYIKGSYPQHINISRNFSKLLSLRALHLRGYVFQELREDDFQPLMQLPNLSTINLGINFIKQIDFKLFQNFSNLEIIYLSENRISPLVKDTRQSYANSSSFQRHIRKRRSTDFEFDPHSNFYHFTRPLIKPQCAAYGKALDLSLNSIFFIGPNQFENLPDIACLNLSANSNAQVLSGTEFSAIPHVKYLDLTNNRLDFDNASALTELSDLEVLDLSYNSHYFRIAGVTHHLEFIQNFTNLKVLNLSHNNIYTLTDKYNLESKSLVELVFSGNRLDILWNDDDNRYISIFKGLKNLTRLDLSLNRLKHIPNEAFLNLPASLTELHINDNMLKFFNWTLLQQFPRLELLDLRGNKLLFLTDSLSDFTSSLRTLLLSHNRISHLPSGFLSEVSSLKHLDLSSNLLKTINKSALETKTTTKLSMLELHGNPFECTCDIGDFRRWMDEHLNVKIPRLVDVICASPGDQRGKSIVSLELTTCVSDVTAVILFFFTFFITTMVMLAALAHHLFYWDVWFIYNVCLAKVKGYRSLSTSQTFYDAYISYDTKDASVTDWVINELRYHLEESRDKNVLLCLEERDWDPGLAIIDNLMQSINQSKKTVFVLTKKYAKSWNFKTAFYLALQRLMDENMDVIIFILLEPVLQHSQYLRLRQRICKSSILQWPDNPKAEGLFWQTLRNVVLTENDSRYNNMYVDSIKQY
Put plainly: TLR8 Stimulation determined using HEK-Blue Detection. Particulars: HEK-Blue hTLR8 cells, 16 hr, percentages of maximum activation with Resiquimod or Motolimod, Table 3. The text has this:
TLR8 Stimulation determined using HEK-Blue Detection
(§1) This assay was designed for studying the stimulation of human TLR 8 protein in HEK-Blue hTLR8 tool cell line by monitoring the activation of NF-κB. HEK-Blue hTLR8 cells were obtained by co-transfection of the hTLR8 gene and an optimized secreted embryonic alkaline phosphatase (SEAP) reporter gene into HEK293 cells. The SEAP reporter gene was placed under the control of the IFN-β minimal promoter fused to five NF-κB and AP-1-binding sites. Stimulation with a TLR 8 ligand activates NF-κB and AP-1 which induce the expression of SEAP. Levels of SEAP can be easily determined with HEK-Blue Detection, a cell culture medium that allows for real-time detection of SEAP. HEK-Blue Detection contains all the nutrients necessary for cell growth and a specific SEAP color substrate. The hydrolysis of the substrate by SEAP produces a purple/blue color that can be measured with a spectrophotometer.
When growing to 50-80% confluency, HEK-Blue hTLR7/8 cells were plated into 96-well plate (costar 3599) at a density of 40000 cells/well. Then compounds were added with serial dilutions over 10 points with a 1 nM-10 uM final concentration range in 0.1% DMSO/HEK-Blue Detection. The plates were then incubated for 16 hr at 37° C. in 5% CO2. The optical density at 620-655 nm was read on BMG PHERAstar FSX instrument. The EC50 for each compound was determined by calculating the percentages of the maximum activation identified with Resiquimod or Motolimod.

The target in assay [3] is T1, human TLR7. The assay is described as follows: TLR7 Stimulation Determined Using HEK-Blue Detection. The note with it: HEK-Blue hTLR7 cells, 16 hr, percentages of maximum activation with Resiquimod, Table 1, B233-B247.
Source text: TLR7 Stimulation Determined Using HEK-Blue Detection
as §1, with “TLR7” for “TLR 8”, “hTLR7” for “hTLR8”
When growing to 50-80% confluency, HEK-Blue hTLR7 cells were plated into 96-well plate (costar 3599) at a density of 40000 cells/well. Then compounds were added with serial dilutions over 10 points with a 0.04 nM-10 μM final concentration range in 0.1% DMSO/HEK-Blue Detection. The plates were then incubated for 16 hr at 37° C. in 5% CO2 and vortex for 30 s before measurement. The optical density at 620-655 nm was read on BMG PHERAstar FSX instrument. The EC50 for each compound was determined by calculating the percentages of the maximum activation identified with Resiquimod.

This note sets out measurements from US12612407B2, “Imidazo[2,1-f][1,2,4]triazin-4-amine derivatives as TLR7 agonist” (BEIGENE, LTD., priority 2020, dated 2026).

What is called EC50 is the concentration needed to bring the measured effect to its halfway point. High values mean lower potency in that assay, low ones higher potency in that assay.

Regarding `CCC[C@H](C)Nc1nc(N)c2ncc(Cc3cnc(N4CCC(CN(C)C)CC4)c(C)c3)n2n1` (single isomer, unassigned) [Compound B147], the EC50 in assay [1] was 2.2 nM; in assay [2] it was > 10000 nM.
The matching figures for `CCC[C@H](C)Nc1nc(N)c2ncc(Cc3cnc(N4CCC(CNC)CC4)c(C)c3)n2n1` (single isomer, unassigned) [Compound B213]: 2.6 nM and > 10000 nM.
For `CCCCOc1nc(N)c2ncc(Cc3ccc(C4CCNCC4)nc3F)n2n1` [Compound B21, 2-butoxy-7-((2-fluoro-6-(piperidin-4-yl)pyridin-3-yl)methyl)imidazo[2,1-f][1,2,4]triazin-4-amine] the same measures were 115 nM and 250 nM.
With `CCC[C@H](C)Oc1nc(N)c2ncc(Cc3cnc(N4CCNCC4)c(C)c3)n2n1` [Compound B118, (S)-7-((5-methyl-6-(piperazin-1-yl)pyridin-3-yl)methyl)-2-(pentan-2-yloxy)imidazo[2,1-f][1,2,4]triazin-4-amine], the values for the EC50 in assay [1] and in assay [2] were 3.7 nM and 197 nM, respectively.
With `CCC[C@H](C)Oc1nc(N)c2ncc(Cc3cnc(N4CCC(N(C)C)CC4)c(C)c3)n2n1` [Compound B122, (S)-7-((6-(4-(dimethylamino)piperidin-1-yl)-5-methylpyridin-3-yl)methyl)-2-(pentan-2-yloxy)imidazo[2,1-f][1,2,4]triazin-4-amine], the EC50 in assay [1] turned out to be 2.6 nM; in assay [2], 262 nM.
For `CCC[C@H](C)Oc1nc(N)c2ncc(Cc3cnc(N4CCC(CN(C)C)CC4)c(C)c3)n2n1` [Compound B123, (S)-7-((6-(4-((dimethylamino)methyl)piperidin-1-yl)-5-methylpyridin-3-yl)methyl)-2-(pentan-2-yloxy)imidazo[2,1-f][1,2,4]triazin-4-amine] the same measures were 1.9 nM and 310 nM.
The matching figures for `CCCC(CC)Oc1nc(N)c2ncc(Cc3cnc(N4CCNCC4)c(C)c3)n2n1` (centres unmarked) [Compound B140, 2-(hexan-3-yloxy)-7-((5-methyl-6-(piperazin-1-yl)pyridin-3-yl)methyl)imidazo[2,1-f][1,2,4]triazin-4-amine]: 8.7 nM and 530 nM.
For `CCCC(CCO)Oc1nc(N)c2ncc(Cc3cnc(N4CCNCC4)c(C)c3)n2n1` (centres unmarked) [Compound B165, 3-((4-amino-7-((5-methyl-6-(piperazin-1-yl)pyridin-3-yl)methyl)imidazo[2,1-f][1,2,4]triazin-2-yl)oxy)hexan-1-ol] the same measures were 7 nM and 150 nM.
For `CCCC(CCC)Nc1nc(N)c2ncc(Cc3cnc(N4CCC(CN(C)C)CC4)c(C)c3)n2n1` [Compound B190, 7-((6-(4-((dimethylamino)methyl)piperidin-1-yl)-5-methylpyridin-3-yl)methyl)-N2-(heptan-4-yl)imidazo[2,1-f][1,2,4]triazine-2,4-diamine], the EC50 in assay [1] is 4.4 nM; in assay [2] it was > 10000 nM.
The matching figures for `CCCC(CCC)Nc1nc(N)c2ncc(Cc3cnc(N4CCN(C(=O)CN(C)C)CC4)c(C)c3)n2n1` [Compound B195, 1-(4-(5-((4-amino-2-(heptan-4-ylamino)imidazo[2,1-f] [1,2,4]triazin-7-yl)methyl)-3-methylpyridin-2-yl)piperazin-1-yl)-2-(dimethylamino)ethan-1-one]: 2.8 nM and > 10000 nM.
For `CCC[C@H](C)Nc1nc(N)c2ncc(Cc3cnc(N4CCN(C(=O)CN(C)C)CC4)c(C)c3)n2n1` [Compound B219, (S)-1-(4-(5-((4-amino-2-(pentan-2-ylamino)imidazo[2,1-f][1,2,4]triazin-7-yl)methyl)-3-methylpyridin-2-yl)piperazin-1-yl)-2-(dimethylamino)ethan-1-one] the same measures were 2.4 nM and > 10000 nM.
Regarding `CCCC(C)Oc1nc(N)c2ncc(Cc3cnc(N4CCC(CNCCOC)CC4)c(C)c3)n2n1` (centres unmarked) [Compound B237, 7-((6-(4-(((2-methoxyethyl)amino)methyl)piperidin-1-yl)-5-methylpyridin-3-yl)methyl)-2-(pentan-2-yloxy)imidazo[2,1-f][1,2,4]triazin-4-amine], a half-maximal response in assay [3] (EC50) required 8.5 nM.
